Measurements published in patent US6518424B1, “Substituted pyrimidine compositions and methods of use” (Elan Pharmaceuticals, Inc., priority 1998, dated 2003).

Columns and labels:
[1] = target: T1, cPLA2 (Homo sapiens, UniProt P47712); assay: cPLA2 enzyme assay using U937 cytosolic extract as enzyme source (release of [14C]-AA from phosphatidylcholine); assay type: biochemical; details: asterisk on compound number in Table I
T1 construct: using cPLA2 enzyme from the cytosolic extraction of U937 cells; endogenous in cells; host or cells: human U937 cells, cytosolic extract (N2 cavitation, 100,000 g supernatant)
T1 sequence (P47712 1-749): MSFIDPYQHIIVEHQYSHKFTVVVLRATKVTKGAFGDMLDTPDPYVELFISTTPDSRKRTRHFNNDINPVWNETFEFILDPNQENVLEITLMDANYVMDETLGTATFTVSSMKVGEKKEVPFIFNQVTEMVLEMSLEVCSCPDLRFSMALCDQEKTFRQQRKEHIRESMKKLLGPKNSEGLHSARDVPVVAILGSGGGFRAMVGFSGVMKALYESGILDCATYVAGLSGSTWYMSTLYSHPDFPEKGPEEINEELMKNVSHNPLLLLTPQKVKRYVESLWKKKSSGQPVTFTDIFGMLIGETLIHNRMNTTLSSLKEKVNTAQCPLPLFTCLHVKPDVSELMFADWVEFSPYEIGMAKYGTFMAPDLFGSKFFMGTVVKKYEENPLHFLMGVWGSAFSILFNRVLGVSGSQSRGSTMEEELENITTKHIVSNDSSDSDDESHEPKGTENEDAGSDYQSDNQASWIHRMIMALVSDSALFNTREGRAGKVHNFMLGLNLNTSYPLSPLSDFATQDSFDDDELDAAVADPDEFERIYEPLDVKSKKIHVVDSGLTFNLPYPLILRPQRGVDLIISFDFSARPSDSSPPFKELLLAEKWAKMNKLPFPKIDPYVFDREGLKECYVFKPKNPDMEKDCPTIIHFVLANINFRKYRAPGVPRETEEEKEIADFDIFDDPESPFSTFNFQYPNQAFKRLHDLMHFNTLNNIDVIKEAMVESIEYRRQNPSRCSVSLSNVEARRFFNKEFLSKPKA
Experimental: The PLA2 inhibitory properties of the compounds of the present invention were evaluated using the following assays. Inhibition of release of [^14C]-AA from phosphatidylcholine was measured according to standard methods. Human U937 cells were cultured in RPMI 1640 medium supplemented with 10% fetal bovine serum, penicillin, L-glutamine, and HEPES buffer. Cells were harvested and washed 3 times with extraction buffer (140 mM NaCl—5 mM KCl—2 mM EDTA—25 mM Tris pH 7.4) and resuspended at 1×10^8 cells/mL containing 100 μM leupeptin—50 μM pepstatin—1 mM PMSF. Cells were placed in a N2 cavitation bomb and put under pressure at 600 psi or maximum pressure for 20 minutes at 4° C. Cells were then released. The suspension was collected and centrifuged at 100,000 g for 60 minutes at 4° C. The resulting supernatant was collected and filtered through a 0.22 μm filter. Extract was then diluted to 50% glycerol and stored at −20° C.
For the preparation of substrate, 20 nmol of phosphatidylcholine-α-1-palmitoyl-2-arachidonyl-1-[^14C] and 10 nmol 1,2-dioleyl-glycerol were mixed together and dried under a N2 stream. A solution of 1 mL of 150 mM NaCl—50 mM HEPES pH 7.5 was added to the mixture. To reconstitute liposomes, the mixture was sonicated using a Branson 450 sonifier for 2 minutes at 50% duty cycle output level 3 on ice. After sonification, 40 μL of a 100 mg/mL BSA solution was added per mL.
The compounds were first dissolved in DMSO at 2 mM and serially diluted in DMSO by a factor of five for a total of 5 concentrations. These dilutions were further dissolved 60 fold in reaction buffer (150 mM NaCl—50 mM HEPES pH 7.5—1 mM CaCl2—1 mM 2-ME) containing approximately 5% of the U937 cytosolic extract to make up the preincubation mixture which was then incubated for 20 minutes at 37° C. Vehicle control using only DMSO with no compound was also made. To 30 μL of this Extract/compound mixture was added 10 μL of substrate. The 40 μL reaction mixture was incubated for 15 minutes at 37° C., and the reaction was stopped by adding 400 μL Dole's reagent [2-propanol/heptane/0.5 M H2SO4 (40:10:1) 10 μg/mL stearic acid]. This was followed by the addition of 240 μL heptane and 200 μL water. 280 μL of the top heptane layer was transferred to a tube containing […] silica gel with 200 μL heptane and mixed vigorously. Silica gel was then centrifuged at 1000 g for 1 minute. 400 μL of liquid was transferred to scintillation vial along with 4 mL of Beckman Ready Safe scintillation cocktail and mixed. Radioactivity was determined in a Beckman scintillation counter.
The compounds of the present invention were assayed for cPLA2 activity using cPLA2 enzyme from the cytosolic extraction of U937 cells (all procedures carried out on ice). […]

Row | Structure (SMILES) | IC50 [1] [nM] | melting point [°C]
1 | CCCc1ccc(C(c2ccccc2)c2cc(O)nc(-c3ccccc3)n2)cc1 (centres unmarked) [Compound 18, 6-((4-n-Propyl)phenyl,phenyl)methyl-2-phenyl-pyrimidine-4-ol] | < 100 | 149 to 154
2 | CCCc1ccc(C(c2ccccc2)c2cc(O)nc(-c3ccccc3)n2)cc1 (centres unmarked) [Compound 19, 6-((4-Propyl)phenyl,phenyl)methyl-2-phenyl-pyrimidine-4-ol] | < 100 | 
3 | CC(C)Oc1ccc(C(c2ccccc2)c2cc(O)nc(-c3ccccc3)n2)cc1 (centres unmarked) [Compound 21, 6-((4-Isopropoxy)phenyl,phenyl)methyl-2-phenyl-pyrimidine-4-ol] | < 100 | 
4 | CC(C)Oc1ccc(C(c2ccccc2)c2cc(O)nc(-c3ccccc3)n2)cc1 (centres unmarked) [Compound 22, 6-((4-Isopropoxy)phenyl,phenyl)methyl-2-phenyl-pyrimidine-4-ol] | < 100 | 
